Laboratory results taken from ChEMBL document CHEMBL1125709, “Substituent effect on the stereochemistry of H2-receptor antagonists of the phenylformamidine series. A conformation-dependent mode of interaction with the H2 receptor” (J Med Chem, 1991).

Biological target: Histamine H2 receptor (Cavia porcellus, UniProt P47747)
Test: Histamine H2 receptor antagonism on the right atrium of the guinea pig
Type: functional, tissue-based, Cardiac atrium
Conditions: read-out: pA2 (converted)

Chain of Histamine H2 receptor (P47747 whole entry): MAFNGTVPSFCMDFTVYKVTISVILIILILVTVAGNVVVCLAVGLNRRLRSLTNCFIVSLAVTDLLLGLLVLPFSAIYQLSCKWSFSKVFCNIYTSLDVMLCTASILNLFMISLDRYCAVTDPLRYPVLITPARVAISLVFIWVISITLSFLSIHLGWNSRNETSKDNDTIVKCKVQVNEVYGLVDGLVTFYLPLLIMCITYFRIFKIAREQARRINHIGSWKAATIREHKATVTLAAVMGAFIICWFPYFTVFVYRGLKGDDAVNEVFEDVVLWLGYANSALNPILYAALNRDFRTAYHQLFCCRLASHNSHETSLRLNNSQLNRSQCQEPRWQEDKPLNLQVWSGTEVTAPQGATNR

In order of rising Kb:
1. CC(C)CN/C=N/c1ccc(-c2c[nH]cn2)cc1  5.25 nM
2. CCC(C)(C)N/C=N/c1ccc(-c2c[nH]cn2)cc1  7.59 nM
3. CC(C)(C)/N=C/Nc1ccc(-c2c[nH]cn2)cc1  11.2 nM
4. CCCCN/C=N/c1ccc(-c2c[nH]cn2)cc1  11.2 nM
5. CCC(C)N/C=N/c1ccc(-c2c[nH]cn2)cc1 (centres undefined)  14.1 nM
6. CC(C)/N=C/Nc1ccc(-c2c[nH]cn2)cc1  28.2 nM
7. CCC(CC)N/C=N/c1ccc(-c2c[nH]cn2)cc1  31.6 nM
8. CC/N=C/Nc1ccc(-c2c[nH]cn2)cc1  42.7 nM
9. CN/C=N/c1ccc(-c2c[nH]cn2)cc1  1200 nM
